One assay has as its system RV VP2, VP6, NSP4, NSP5. As to the kind of experiment: RV gene transcription and antigen expression in Caco-2 cells (qPCR, WB, IFA). It is filed as cell-based, Rotavirus. The following applies: RV-infected Caco-2 cells, 18 h. The method, then:
Caco-2 cells growing on coverslips were mock-infected with PBS or infected with RV Wa or SA11 strains (MOI = 1), then the cells were cultivated with DMEM containing 100 nM NVP-HSP990 or an equal volume of DMSO as a control for another 18 h after infection. The cells were then washed with PBS, fixed in 4% paraformaldehyde for 20 min, followed by permeabilization in 0.5% Triton X-100 for 10 min and blocking with 5% BSA (Beyotime, China) for 1 h at room temperature. The cells were then incubated with rabbit anti-ZO-1 monoclonal antibody (CST, USA) (1:100) or rabbit anti-RV VP6 polyclonal antibodies (CUSABIO, China) (1:50) for 2 h at room temperature, washed twice with PBS, and incubated with Cy3-conjugated goat anti-rabbit antibodies (Beyotime, China) (1:500) for 1 h at room temperature. In some experiments, the cells were also stained with FITC-conjugated goat anti-RV antibodies (Virostat, USA) (1:100) for 1 h at room temperature and followed by 5 µg/mL 2-(4-amidinophenyl)-6-indolecarbamidine dihydrochloride (DAPI) (Sigma-Aldrich, USA) staining for 10 min. The triple-stained cells were washed twice with PBS and mounted in Prolong Gold Antifade Reagent (CST, USA). Microscopic images were acquired with an EVOS M5000 system (Thermo Fisher Scientific, USA) using the built-in Celleste software (v.6.0). […] Minimal post-processing (image cropping and annotations) was applied through Adobe Illustrator 2019 (Adobe Systems, USA) to ensure readability. […]
MA104, Caco-2, and HT-29 cells were mock-infected with PBS, infected with RV Wa or SA11 strains (MOI = 3), or treated with 1 µM C16-PAF (C16) for 1 h. […] After protein quantification with a BCA kit (Beyotime, China), the protein samples were mixed with 25 µL 5× SDS loading buffer (Beyotime, China), boiled at 100°C for 5 min, chilled on ice, vortexed for seconds, and centrifuged at 12,000 × g for 3 min at room temperature. […]
(A) Caco-2 cells were infected with RV (Wa or SA11 strains) at varying MOIs (0.001–10), followed by treatment with 100 nM NVP-HSP990 or an equal volume of DMSO (as a control) for 24 h. Viral replication was assessed using PFA. […]
(In general: Quantitative PCR measures a nucleic acid by following its amplification.)

In assay [1] the test system is MAPK signaling pathway (ERK1/2, p38 MAPK, SAPK/JNK). As to the kind of experiment: Western blot of MAPK components. It is filed as cell-based. The following applies: WB; for MAPK activation (especially ERK1/2 and p38 MAPK): 100 nM, 20 h. The protocol:
MA104, Caco-2, and HT-29 cells were mock-infected with PBS, infected with RV Wa or SA11 strains (MOI = 3), or treated with 1 µM C16-PAF (C16) for 1 h. After removing the viruses or C16-PAF and washing cells two times with DMEM, the cells were cultivated with 2 mL DMEM containing 100 nM NVP-HSP990 (+), an equal volume of DMSO (−), or 1 µM C16-PAF at 37°C and 5% CO2 for 20 h. Then, the cells in each well (~5 × 10^5 cells) were lysed with 100 µL RIPA lysis buffer (Beyotime, China) plus protease inhibitor cocktail (Thermo Fisher Scientific, USA). The cell lysates were collected in 1.5 mL EP tubes, sonicated five times for 15 s at 80 watts on ice, and clarified by centrifugation at 12,000 × g for 10 min at 4°C. After protein quantification with a BCA kit (Beyotime, China), the protein samples were mixed with 25 µL 5× SDS loading buffer (Beyotime, China), boiled at 100°C for 5 min, chilled on ice, vortexed for seconds, and centrifuged at 12,000 × g for 3 min at room temperature. Twenty micrograms of protein was subjected to protein electrophoresis in precast 4–20% SDS-PAGE gels (Beyotime, China), and then transferred to 0.22 µm PVDF membranes (Millipore, USA). After blocking with 5% BSA, the membranes were incubated with rabbit antibodies to MAPK components (SAPK/JNK, phospho-SAPK/JNK, p38 MAPK, phospho-p38 MAPK, ERK1/2, phospho-ERK1/2) (CST, USA), rabbit anti-RV VP6/VP7 polyclonal antibodies (CUSABIO, China), or mouse mAb to β-actin (Servicebio, China) as an internal reference. Afterward, the membranes were incubated with horseradish peroxidase-conjugated rat anti-rabbit IgG (CST, USA) or rat anti-mouse IgG (CST, USA). Immunoreactive bands were visualized using enhanced chemiluminescence substrate BeyoECL Plus (Beyotime, China).
Fig 4 NVP-HSP990 inhibited MAPK activation and facilitated expression of tight junction-associated proteins in intestinal cells. […]
Supplementary Fig. 7. […] The grayscale values of WB bands were quantified, and the relative protein levels of MAPK components were normalized to β-actin. […]
(In general: A western blot detects proteins with antibodies after separation by electrophoresis.)

Structures are written as SMILES.

On to `COc1cccc(-c2cc(F)ccc2[C@H]2Cc3nc(N)nc(C)c3C(=O)N2)n1` [NVP-HSP990], for which the “RV VP6 expression (IFA)” value with RV VP2, VP6, NSP4, NSP5 (100 nM) is recorded as “potent inhibition”. Moreover, the “RNA synthesis of RV proteins VP2, VP6, NSP4, and NSP5 (qPCR)” value with RV VP2, VP6, NSP4, NSP5 (MOI = 1, 100 nM) is on record as “significant reduction”. Moreover, in the assay on RV VP2, VP6, NSP4, NSP5 (MOI = 1, 100 nM), the “RV structural protein VP6 (WB)” value is recorded as “remarkably reduced”. In addition, in assay [1] (Caco-2 cells, 1 µM C16-PAF, 100 nM NVP-HSP990, 20 h), the “MAPK activation caused by non-infectious factors (drug stimulation)” value was “potently inhibited”. Moreover, the “MAPK activation (especially ERK1/2 and p38 MAPK)” value in assay [1] (RV-infected Caco-2 and HT-29 cells) is reported as “significantly inhibited”; in assay [1] (RV-infected MA104 cells), “not”.
